Measured values reported in patent publication US20070027145A1, “Quinazoline derivatives as inhibitors of vegf receptor tyrosine kinases” (priority 2003, published 2007).

Assays:
[1] = test system: EGF-stimulated proliferation of human umbilical vein endothelial cells (HUVEC); test: In vitro HUVEC proliferation assay (b), EGF-stimulated; type: cell-based; conditions: EGF 3 ng/ml, read-out: IC50 in the HUVEC assay (b) with respect to EGF
Protocol: (§1) This assay determines the ability of a test compound to inhibit the growth factor-stimulated proliferation of human umbilical vein endothelial cells (HUVEC).
(§2) HUVEC cells were isolated in MCDB 131 (Gibco BRL)+7.5% v/v fetal calf serum (PCS) and were plated out (at passage 2 to 8), in MCDB 131+2% v/v FCS+3 μg/ml heparin+1 µg/ml hydrocortisone, at a concentration of 1000 cells/well in 96 well plates. After a minimum of 4 hours they were dosed with the appropriate growth factor (i.e. VEGF 3 ng/ml, EGF 3 ng/ml or b-FGF 0.3 ng/ml) and compound. The cultures were then incubated for 4 days at 37° C. with 7.5% carbon dioxide. On day 4 the cultures were pulsed with 1 μCi/well of tritiated-thymidine (Amersham product TRA 61) and incubated for 4 hours. The cells were harvested using a 96-well plate harvester (Tomtek) and then assayed for incorporation of tritium with a Beta plate counter. Incorporation of radioactivity into cells, expressed as cpm, was used to measure inhibition of growth factor-stimulated cell proliferation by compounds.

EGFR = target: T1, EGFR (Homo sapiens, UniProt P00533); test: In vitro receptor tyrosine kinase inhibition test (a), EGFR; type: biochemical; conditions: read-out: IC50 in the enzyme assay (a) against EGFR
T1 construct: made in house; host or cells: insect cells (e.g. Spodoptera frugiperda Sf21), recombinant baculovirus
Description: (§3) This assay determines the ability of a test compound to inhibit tyrosine kinase activity. DNA encoding VEGF or epidermal growth factor (EGF) receptor cytoplasmic domains may be obtained by total gene synthesis (Edwards M, International Biotechnology Lab 5(3), 19-25, 1987) or by cloning. These may then be expressed in a suitable expression system to obtain polypeptide with tyrosine kinase activity. […] In the case of the VEGF receptor Flt (Genbank accession number X51602), a 1.7 kb DNA fragment encoding most of the cytoplasmic domain, commencing with methionine 783 and including the termination codon, described by Shibuya et al (Oncogene, 1990, 5: 519-524), was isolated from cDNA and cloned into a baculoviris transplacement vector (for example pAcYM1 (see The Baculovirus Expression System: A Laboratory Guide, L. A. King and R. D. Possee, Chapman and Hall, 1992) or pAc360 or pBlueBacHis (available from Invitrogen Corporation)). This recombinant construct was co-transfected into insect cells (for example Spodoptera frugiperda 21(Sf21)) with viral DNA (eg Pharmingen BaculoGold) to prepare recombinant baculovirus. […]

KDR = target: T2, KDR (Homo sapiens, UniProt P35968); test: In vitro receptor tyrosine kinase inhibition test (a), KDR; type: biochemical; conditions: read-out: IC50 in the enzyme assay (a) against KDR
T2 construct: made in house; host or cells: insect cells (e.g. Spodoptera frugiperda Sf21), recombinant baculovirus
Description: as §3

Flt-1 = target: T3, Flt-1 (Homo sapiens, UniProt P17948); test: In vitro receptor tyrosine kinase inhibition test (a), Flt-1; type: biochemical; conditions: read-out: IC50 in the enzyme assay (a) against Flt-1
T3 construct: encoding most of the cytoplasmic domain, commencing with methionine 783 and including the termination codon; made in house; host or cells: Sf21 insect cells, recombinant baculovirus
T3 sequence (P17948 781-1338 limits assumed): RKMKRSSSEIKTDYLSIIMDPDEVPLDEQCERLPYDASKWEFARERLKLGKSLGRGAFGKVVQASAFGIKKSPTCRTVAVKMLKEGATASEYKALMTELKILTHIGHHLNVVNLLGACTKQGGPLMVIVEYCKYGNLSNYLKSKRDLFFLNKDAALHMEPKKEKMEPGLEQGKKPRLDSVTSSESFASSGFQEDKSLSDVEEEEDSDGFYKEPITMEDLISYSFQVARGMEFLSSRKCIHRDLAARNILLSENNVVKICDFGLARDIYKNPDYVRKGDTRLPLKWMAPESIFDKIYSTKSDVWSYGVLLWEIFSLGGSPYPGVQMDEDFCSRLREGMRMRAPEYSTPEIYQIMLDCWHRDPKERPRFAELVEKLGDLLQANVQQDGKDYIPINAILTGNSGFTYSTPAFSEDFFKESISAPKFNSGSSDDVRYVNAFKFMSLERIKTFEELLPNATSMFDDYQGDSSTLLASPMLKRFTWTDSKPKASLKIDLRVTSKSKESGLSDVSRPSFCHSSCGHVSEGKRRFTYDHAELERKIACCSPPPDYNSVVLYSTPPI
Description: as §3

[2] = target: T4, human ether-a-go-go-related-gene (hERG)-encoded potassium channel (Homo sapiens, UniProt Q12809); test: hERG-encoded potassium channel inhibition test (d); type: cell-based; conditions: HEK cells, whole cell patch clamp, tail current
T4 construct: expressed in transfected cells; host or cells: Human embryonic kidney (HEK) cells under G418 selection
Protocol: This assay determines the ability of a test compound to inhibit the tail current flowing through the human ether-a-go-go-related-gene (hERG)-encoded potassium channel.
Human embryonic kidney (HEK) cells expressing the hERG-encoded channel were grown in Miniium Essential Medium Eagle (EMEM; Sigma-Aldrich catalogue number M2279), supplemented with 10% Foetal Calf Serum (Labtech Internation; product number 4-101-500), 10% M1 serum-free supplement (Egg Technologies; product number 70916) and 0.4 mg/ml Geneticin G418 (Sigma-Aldrich; catalogue number G7034). […]
For each cell recorded, a glass coverslp containing the cells were placed at the bottom of a Perspex chamber containging bath solution (see below) at ambient temperature (˜20° C.). […]
The cell was recorded in the whole cell configutation of the patch clamp technique. […]
The amplitude of the hERG-encoded potassium channel tail current following the step from +40 mV to −50 mV was recorded on-line by Clampex software (Axon Instruments). […]
The effect of each concentration of test compound was quantified by expressing the tail current amplitude in the presence of a given concentration of test compound as a percentage of that in the presence of vehicle.
Test compound potency (IC50) was determined by fitting the percentage inhibition values making up the concentration-effect to a four parameter Hill equation using a standard data-fitting package.

[3] = test system: VEGF-stimulated proliferation of human umbilical vein endothelial cells (HUVEC); test: In vitro HUVEC proliferation assay (b), VEGF-stimulated; type: cell-based; conditions: VEGF 3 ng/ml, read-out: IC50 in the HUVEC assay (b) with respect to VEGF
Protocol: as §1, §2

T4 sequence (Q12809 whole entry): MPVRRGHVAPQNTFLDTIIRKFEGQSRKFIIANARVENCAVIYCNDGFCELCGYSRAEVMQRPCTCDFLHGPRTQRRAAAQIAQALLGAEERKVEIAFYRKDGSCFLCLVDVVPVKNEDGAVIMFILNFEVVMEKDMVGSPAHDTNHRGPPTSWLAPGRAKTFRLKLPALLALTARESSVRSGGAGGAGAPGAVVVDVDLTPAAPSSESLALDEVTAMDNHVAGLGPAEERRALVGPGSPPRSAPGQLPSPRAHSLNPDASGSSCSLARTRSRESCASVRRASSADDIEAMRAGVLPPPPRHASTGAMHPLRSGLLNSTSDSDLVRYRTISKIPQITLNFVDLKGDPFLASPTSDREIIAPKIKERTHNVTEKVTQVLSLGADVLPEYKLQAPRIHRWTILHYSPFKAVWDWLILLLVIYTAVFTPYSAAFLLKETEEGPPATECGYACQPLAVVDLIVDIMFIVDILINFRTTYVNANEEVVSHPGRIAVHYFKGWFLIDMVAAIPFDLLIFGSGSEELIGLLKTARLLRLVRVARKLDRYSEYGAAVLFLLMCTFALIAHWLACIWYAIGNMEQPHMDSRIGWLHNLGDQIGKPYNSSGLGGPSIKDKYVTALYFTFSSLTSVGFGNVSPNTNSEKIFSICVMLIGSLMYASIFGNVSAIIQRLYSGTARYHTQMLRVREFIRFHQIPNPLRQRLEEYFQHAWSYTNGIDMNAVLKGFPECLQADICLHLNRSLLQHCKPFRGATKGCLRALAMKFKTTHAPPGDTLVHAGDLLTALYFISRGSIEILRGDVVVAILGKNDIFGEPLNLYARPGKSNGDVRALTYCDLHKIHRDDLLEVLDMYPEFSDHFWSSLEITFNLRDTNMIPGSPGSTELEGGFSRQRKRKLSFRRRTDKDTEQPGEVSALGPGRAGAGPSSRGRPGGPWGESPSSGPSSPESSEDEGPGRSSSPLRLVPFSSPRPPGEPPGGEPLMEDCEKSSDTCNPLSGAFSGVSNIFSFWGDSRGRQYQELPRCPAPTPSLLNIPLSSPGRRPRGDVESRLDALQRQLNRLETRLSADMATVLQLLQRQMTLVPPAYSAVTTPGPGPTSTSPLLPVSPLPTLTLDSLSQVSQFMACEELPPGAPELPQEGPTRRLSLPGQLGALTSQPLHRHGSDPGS
T1 sequence (P00533 669-1210 limits assumed): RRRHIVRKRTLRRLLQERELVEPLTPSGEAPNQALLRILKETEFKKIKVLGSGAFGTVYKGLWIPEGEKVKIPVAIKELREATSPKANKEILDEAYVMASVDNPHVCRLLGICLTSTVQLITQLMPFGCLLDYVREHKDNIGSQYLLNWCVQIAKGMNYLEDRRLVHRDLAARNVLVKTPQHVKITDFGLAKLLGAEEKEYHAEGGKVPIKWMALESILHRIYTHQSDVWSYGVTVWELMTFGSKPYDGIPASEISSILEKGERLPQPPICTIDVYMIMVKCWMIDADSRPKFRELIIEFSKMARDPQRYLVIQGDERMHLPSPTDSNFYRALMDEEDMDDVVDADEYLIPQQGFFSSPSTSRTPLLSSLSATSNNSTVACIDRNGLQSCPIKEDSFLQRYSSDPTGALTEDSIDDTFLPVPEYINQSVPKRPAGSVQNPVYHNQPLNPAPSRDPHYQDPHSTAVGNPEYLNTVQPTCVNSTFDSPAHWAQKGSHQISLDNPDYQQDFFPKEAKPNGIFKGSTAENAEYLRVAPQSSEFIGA
T2 sequence (P35968 786-1356 limits assumed): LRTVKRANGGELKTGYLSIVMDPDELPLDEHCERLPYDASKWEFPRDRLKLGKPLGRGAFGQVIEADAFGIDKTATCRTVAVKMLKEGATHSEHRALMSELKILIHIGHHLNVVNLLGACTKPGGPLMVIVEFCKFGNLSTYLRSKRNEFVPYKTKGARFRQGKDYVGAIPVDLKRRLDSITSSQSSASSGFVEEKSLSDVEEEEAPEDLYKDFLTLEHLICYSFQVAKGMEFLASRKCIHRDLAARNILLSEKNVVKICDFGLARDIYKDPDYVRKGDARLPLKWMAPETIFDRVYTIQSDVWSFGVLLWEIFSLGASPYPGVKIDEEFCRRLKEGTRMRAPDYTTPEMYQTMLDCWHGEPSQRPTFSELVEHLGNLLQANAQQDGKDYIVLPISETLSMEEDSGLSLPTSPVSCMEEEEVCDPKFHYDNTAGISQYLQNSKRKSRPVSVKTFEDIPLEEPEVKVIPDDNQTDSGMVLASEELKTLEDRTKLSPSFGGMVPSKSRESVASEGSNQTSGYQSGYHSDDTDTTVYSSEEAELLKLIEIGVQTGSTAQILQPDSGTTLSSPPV

## COc1cc2c(Nc3ccc(Br)cc3F)ncnc2cc1OCC1CCN(C(=O)CN(C)C)CC1 [Example 1, 4-(4-bromo-2-fluoroanilino)-7-({1-[(N,N-dimethylamino)acetyl]piperidin-4-yl}methoxy)-6-methoxyquinazoline]
[1]
  IC50: 100 nM
EGFR
  IC50: 72 nM
KDR
  IC50: 29 nM
Flt-1
  IC50: 490 nM
[2]
  IC50: 1500 nM
[3]
  IC50: 11.4 nM
